Laboratory results: patent US9732037B2, “2-aminopyridine-based selective neuronal nitric oxide synthase inhibitors” (Northwestern University, priority 2013, dated 2017)
pKi: −log10 of the molar value.

How the values were obtained:
Type in all cases: biochemical
bovine eNOS = bovine eNOS (Bos taurus (Bovine), UniProt P29473); test: NOS inhibition assay, eNOS; settings: for pKi: bovine eNOS, KM 1.7 μM, Ki = IC50/(1 + [S]/KM); for Selectivity e/n: ratio of Ki (eNOS) to nNOS
Description: (§1) Nitric oxide formation from NOS was monitored using literature techniques.

rat nNOS = rat nNOS (Rattus norvegicus (Rat), UniProt P29476); test: NOS inhibition assay, nNOS; settings: KM 1.3 μM, Ki = IC50/(1 + [S]/KM)
Description: as §1

murine iNOS = murine iNOS (Mus musculus (Mouse), UniProt P29477); test: NOS inhibition assay, iNOS; settings: for pKi: murine iNOS, KM 8.2 μM, Ki = IC50/(1 + [S]/KM); for Selectivity i/n: ratio of Ki (iNOS) to nNOS
Description: as §1

Cc1cc(N)nc(COC[C@H]2C[C@H](OCc3cc(C)cc(N)n3)CN2)c1 [Compound 9]
pKi (bovine eNOS): 5.16 | Selectivity e/n (bovine eNOS): 693 | pKi (rat nNOS): 8.00 | pKi (murine iNOS): 5.53 | Selectivity i/n (murine iNOS): 295

Cc1cc(N)nc(COC[C@@H]2C[C@H](OCc3cc(C)cc(N)n3)CN2)c1 [Compound 8]
pKi (bovine eNOS): 5.63 | Selectivity e/n (bovine eNOS): 76 | pKi (rat nNOS): 7.51 | pKi (murine iNOS): 5.72 | Selectivity i/n (murine iNOS): 61

Cc1cc(N)nc(COc2cccc(OCC3CCNCC3)c2)c1 [Compound 3]
pKi (bovine eNOS): 4.55 | pKi (rat nNOS): 6.93 | pKi (murine iNOS): 4.77

Cc1cc(N)nc(CO[C@H]2CN[C@H](COCCOCc3cccc(F)c3)C2)c1 [Compound 12]
pKi (bovine eNOS): 5.10 | Selectivity e/n (bovine eNOS): 52 | pKi (rat nNOS): 6.82 | pKi (murine iNOS): 5.23 | Selectivity i/n (murine iNOS): 38

Cc1cc(N)nc(COC[C@H]2C[C@@H](OCc3cc(C)cc(N)n3)CN2)c1 [Compound 7]
pKi (bovine eNOS): 5.46 | Selectivity e/n (bovine eNOS): 102 | pKi (rat nNOS): 7.47 | pKi (murine iNOS): 5.25 | Selectivity i/n (murine iNOS): 164

Cc1cc(N)nc(COCCOC[C@H]2C[C@@H](OCc3cc(C)cc(N)n3)CN2)c1 [Compound 11]
pKi (bovine eNOS): 5.03 | Selectivity e/n (bovine eNOS): 46 | pKi (rat nNOS): 6.70 | pKi (murine iNOS): 4.87 | Selectivity i/n (murine iNOS): 68

Cc1cc(N)nc(CO[C@H]2CN[C@@H](COCCOCc3cccc(F)c3)C2)c1 [Compound 13]
pKi (bovine eNOS): 4.93 | Selectivity e/n (bovine eNOS): 35 | pKi (rat nNOS): 6.48 | pKi (murine iNOS): 5.07 | Selectivity i/n (murine iNOS): 26

Cc1cc(N)nc(COc2cccc(OCc3ccncc3)c2)c1 [Compound 2]
pKi (bovine eNOS): 4.20 | pKi (rat nNOS): 6.21 | pKi (murine iNOS): 4.57

Cc1cc(N)nc(COCCOC[C@@H]2C[C@@H](OCc3cc(C)cc(N)n3)CN2)c1 [Compound 10]
pKi (bovine eNOS): 5.20 | Selectivity e/n (bovine eNOS): 89 | pKi (rat nNOS): 7.15 | pKi (murine iNOS): 5.64 | Selectivity i/n (murine iNOS): 33

Cc1cc(N)nc(COC[C@@H]2C[C@@H](OCc3cc(C)cc(N)n3)CN2)c1 [Compound 6]
pKi (bovine eNOS): 5.66 | Selectivity e/n (bovine eNOS): 84 | pKi (rat nNOS): 7.59 | pKi (murine iNOS): 5.64 | Selectivity i/n (murine iNOS): 87

Cc1cc(N)nc(COc2cccc(OCCCN)c2)c1 [Compound 1]
pKi (bovine eNOS): 4.74 | pKi (rat nNOS): 7.22 | pKi (murine iNOS): 5.07
